The values that follow come from ChEMBL document CHEMBL5696442, “Discovery of type II inhibitors of TGFβ-activated kinase 1 (TAK1) and mitogen-activated protein kinase kinase kinase kinase 2 (MAP4K2)” (J Med Chem, 2015).

Each structure is given as a SMILES string. Activity calls are given as the source filed them. No cut-off for these calls is given here.

The target in test [1] is Serine/threonine-protein kinase 16 (Homo sapiens) (UniProt O75716). The test can be described thus: Inhibition of MPSK1 Lys2 labeling site in human A-375 cells at 0.5 uM by KiNativ Profiling analysis relative to control. Type of test: cell-based.
Sequence of Serine/threonine-protein kinase 16 (Homo sapiens) (O75716 whole entry): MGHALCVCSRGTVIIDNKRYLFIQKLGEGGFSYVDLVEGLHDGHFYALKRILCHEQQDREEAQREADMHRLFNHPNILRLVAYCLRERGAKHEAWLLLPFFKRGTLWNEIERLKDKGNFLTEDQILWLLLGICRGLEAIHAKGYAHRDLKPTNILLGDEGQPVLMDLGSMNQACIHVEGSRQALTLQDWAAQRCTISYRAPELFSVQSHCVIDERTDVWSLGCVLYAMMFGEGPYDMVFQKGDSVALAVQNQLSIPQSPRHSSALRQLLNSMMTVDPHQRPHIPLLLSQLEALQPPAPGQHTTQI
Test [2] addresses Cyclin-dependent kinase 6 (Homo sapiens) (UniProt Q00534). The test can be described thus: Inhibition of CDK6 Lys2 labeling site in human A-375 cells at 0.05 uM by KiNativ Profiling analysis relative to control. The test is classed as cell-based.
For test [3], the target named is T1, Dual specificity mitogen-activated protein kinase kinase 6 (Homo sapiens) (UniProt P52564).
T1 sequence (whole entry): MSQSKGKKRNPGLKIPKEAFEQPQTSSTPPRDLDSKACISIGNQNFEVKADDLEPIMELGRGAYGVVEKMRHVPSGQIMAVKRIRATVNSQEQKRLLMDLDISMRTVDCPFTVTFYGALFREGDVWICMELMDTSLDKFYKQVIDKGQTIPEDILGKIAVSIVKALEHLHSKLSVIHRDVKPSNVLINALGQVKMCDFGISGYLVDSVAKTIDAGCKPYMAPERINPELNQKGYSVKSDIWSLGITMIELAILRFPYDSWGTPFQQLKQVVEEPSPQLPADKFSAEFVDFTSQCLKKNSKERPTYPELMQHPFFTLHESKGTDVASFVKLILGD
The test can be described thus: Inhibition of MEK6 (unknown origin) at 1 uM by Ambit Kinomescan binding assay relative to control; values are per cent of control.

Test [4] addresses LIM domain kinase 2 (Homo sapiens) (UniProt P53671). As to the kind of experiment: Inhibition of LIMK2 (unknown origin) at 1 uM by Ambit Kinomescan binding assay relative to control; values are per cent of control.
For test [5], the target named is T2, Serine/threonine-protein kinase TAO3 (Homo sapiens) (UniProt Q9H2K8).
T2 sequence (whole entry): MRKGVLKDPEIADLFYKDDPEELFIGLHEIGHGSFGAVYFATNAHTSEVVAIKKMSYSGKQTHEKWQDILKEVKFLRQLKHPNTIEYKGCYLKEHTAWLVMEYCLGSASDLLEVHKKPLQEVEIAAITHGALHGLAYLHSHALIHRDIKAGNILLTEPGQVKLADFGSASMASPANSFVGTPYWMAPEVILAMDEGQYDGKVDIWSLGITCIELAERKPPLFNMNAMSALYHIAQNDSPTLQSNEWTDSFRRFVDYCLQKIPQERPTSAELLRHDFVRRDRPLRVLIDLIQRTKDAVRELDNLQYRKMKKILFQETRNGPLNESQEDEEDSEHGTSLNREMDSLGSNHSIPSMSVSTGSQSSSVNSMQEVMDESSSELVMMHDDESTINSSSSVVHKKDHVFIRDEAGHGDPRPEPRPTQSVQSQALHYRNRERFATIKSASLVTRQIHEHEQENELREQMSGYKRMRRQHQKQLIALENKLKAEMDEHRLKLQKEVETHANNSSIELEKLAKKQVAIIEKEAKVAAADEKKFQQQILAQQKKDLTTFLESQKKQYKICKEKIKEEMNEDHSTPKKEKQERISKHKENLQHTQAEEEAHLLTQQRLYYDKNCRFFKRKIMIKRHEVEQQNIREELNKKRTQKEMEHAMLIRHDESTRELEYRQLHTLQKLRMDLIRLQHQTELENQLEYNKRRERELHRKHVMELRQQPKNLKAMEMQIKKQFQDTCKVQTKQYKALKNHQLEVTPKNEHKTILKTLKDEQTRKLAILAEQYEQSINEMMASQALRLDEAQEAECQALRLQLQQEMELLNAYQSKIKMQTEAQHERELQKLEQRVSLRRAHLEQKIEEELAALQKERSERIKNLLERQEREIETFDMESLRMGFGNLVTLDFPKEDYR
As to the kind of experiment: Inhibition of TAOK3 (unknown origin) at 1 uM by Ambit Kinomescan binding assay relative to control; values are per cent of control.

Test [6] concerns the target Mitogen-activated protein kinase kinase kinase kinase 4 (Homo sapiens, UniProt O95819). The test can be described thus: Inhibition of ZC1 Lys2 labeling site in human A-375 cells at 5 uM by KiNativ Profiling analysis relative to control. The test is classed as cell-based.
For test [7], the target named is Tyrosine-protein kinase JAK1 (Homo sapiens) (UniProt P23458). The test can be described thus: Inhibition of JAK1 JH1 catalytic domain (unknown origin) at 10 uM by Ambit Kinomescan binding assay relative to control.
Sequence of Tyrosine-protein kinase JAK1 (Homo sapiens) (P23458 whole entry, the tested form may be a part): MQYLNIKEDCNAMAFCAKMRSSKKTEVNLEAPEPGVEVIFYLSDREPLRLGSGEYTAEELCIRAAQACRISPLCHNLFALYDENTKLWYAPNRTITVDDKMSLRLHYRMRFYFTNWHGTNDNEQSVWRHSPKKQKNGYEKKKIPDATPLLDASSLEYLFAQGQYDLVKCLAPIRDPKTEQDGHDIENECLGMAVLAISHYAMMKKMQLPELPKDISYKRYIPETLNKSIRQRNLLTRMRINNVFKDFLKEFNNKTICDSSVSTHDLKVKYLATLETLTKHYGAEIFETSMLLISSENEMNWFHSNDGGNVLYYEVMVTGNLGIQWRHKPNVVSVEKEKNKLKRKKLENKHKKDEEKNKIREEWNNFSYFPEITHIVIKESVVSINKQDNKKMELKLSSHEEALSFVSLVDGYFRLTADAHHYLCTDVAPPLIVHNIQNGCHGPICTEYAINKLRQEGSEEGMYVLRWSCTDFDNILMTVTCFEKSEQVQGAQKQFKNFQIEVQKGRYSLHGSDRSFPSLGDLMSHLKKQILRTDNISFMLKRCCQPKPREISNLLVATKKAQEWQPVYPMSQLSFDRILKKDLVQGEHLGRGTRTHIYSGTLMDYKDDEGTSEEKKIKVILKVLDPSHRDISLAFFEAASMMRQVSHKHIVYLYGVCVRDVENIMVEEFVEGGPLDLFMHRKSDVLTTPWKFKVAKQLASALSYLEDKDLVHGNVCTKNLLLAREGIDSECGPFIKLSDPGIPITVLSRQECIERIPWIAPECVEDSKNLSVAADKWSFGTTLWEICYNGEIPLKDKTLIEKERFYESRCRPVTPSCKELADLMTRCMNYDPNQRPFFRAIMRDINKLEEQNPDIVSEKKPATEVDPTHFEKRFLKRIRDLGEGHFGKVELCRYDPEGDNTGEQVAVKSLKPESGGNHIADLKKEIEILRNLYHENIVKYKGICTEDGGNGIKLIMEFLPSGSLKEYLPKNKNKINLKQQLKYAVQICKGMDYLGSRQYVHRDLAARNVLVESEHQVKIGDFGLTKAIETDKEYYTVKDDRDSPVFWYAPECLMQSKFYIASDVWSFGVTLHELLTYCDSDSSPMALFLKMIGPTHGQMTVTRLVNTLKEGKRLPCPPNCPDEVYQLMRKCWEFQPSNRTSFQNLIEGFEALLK
The target of test [8] is Serine/threonine-protein kinase 32B (Homo sapiens) (UniProt Q9NY57). The test can be described thus: Inhibition of YANK2 (unknown origin) at 10 uM by Ambit Kinomescan binding assay.
Sequence of Serine/threonine-protein kinase 32B (Homo sapiens) (Q9NY57 whole entry): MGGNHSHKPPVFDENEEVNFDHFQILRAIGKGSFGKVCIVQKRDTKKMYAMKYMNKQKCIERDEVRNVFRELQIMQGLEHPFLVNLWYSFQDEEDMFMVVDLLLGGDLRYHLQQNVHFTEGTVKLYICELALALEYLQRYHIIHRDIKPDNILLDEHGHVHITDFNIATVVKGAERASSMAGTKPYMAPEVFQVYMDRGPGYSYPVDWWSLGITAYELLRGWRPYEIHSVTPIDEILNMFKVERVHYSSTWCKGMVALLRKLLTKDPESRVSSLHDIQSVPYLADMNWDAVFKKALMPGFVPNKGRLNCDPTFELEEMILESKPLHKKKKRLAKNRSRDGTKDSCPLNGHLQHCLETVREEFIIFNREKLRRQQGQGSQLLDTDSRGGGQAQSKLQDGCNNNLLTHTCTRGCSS
Test [9] has as its target T3, Eukaryotic elongation factor 2 kinase (Homo sapiens) (UniProt O00418).
T3 sequence (whole entry): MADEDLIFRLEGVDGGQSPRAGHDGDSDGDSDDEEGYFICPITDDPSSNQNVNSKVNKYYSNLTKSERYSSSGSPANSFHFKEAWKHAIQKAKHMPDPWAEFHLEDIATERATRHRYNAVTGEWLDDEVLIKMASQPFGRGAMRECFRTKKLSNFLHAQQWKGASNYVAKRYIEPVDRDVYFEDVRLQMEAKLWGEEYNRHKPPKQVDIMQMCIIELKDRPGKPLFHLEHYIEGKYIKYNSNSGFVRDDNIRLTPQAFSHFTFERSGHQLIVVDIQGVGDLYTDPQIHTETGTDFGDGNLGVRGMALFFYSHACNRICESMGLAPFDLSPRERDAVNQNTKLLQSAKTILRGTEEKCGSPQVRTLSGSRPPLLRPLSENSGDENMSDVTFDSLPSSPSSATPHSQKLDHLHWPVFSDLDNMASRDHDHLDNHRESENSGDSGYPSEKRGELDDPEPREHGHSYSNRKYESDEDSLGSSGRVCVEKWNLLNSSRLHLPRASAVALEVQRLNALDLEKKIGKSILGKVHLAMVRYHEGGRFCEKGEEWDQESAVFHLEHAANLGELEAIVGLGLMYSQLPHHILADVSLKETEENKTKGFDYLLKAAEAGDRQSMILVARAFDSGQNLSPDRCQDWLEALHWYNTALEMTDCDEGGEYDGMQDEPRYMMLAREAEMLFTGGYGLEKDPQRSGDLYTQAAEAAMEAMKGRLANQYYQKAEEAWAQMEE
The test can be described thus: Inhibition of eEF2K ATP labeling site harbouring YIKYNSNSGFVR in human A-375 cells at 5 uM by KiNativ Profiling analysis relative to control. Type of test: cell-based.

The target in test [10] is Tyrosine-protein kinase SYK (Homo sapiens) (UniProt P43405). As to the kind of experiment: Inhibition of SYK (unknown origin) at 10 uM by Ambit Kinomescan binding assay relative to control; values are per cent of control.
In test [11] the target is Mitogen-activated protein kinase kinase kinase 4 (Homo sapiens) (UniProt Q9Y6R4). As to the kind of experiment: Inhibition of MAP3K4 Lys2 labeling site in human Huh-7 cell lysate at 1 uM by KiNativ Profiling analysis relative to control. Type of test: subcellular.
In test [12] the target is T1, Dual specificity mitogen-activated protein kinase kinase 6 (Homo sapiens). The test can be described thus: Inhibition of MAP2K6 Lys2 labeling site in human Huh-7 cells at 1 uM by KiNativ Profiling analysis relative to control. Type of test: cell-based.

Sequence of Mitogen-activated protein kinase kinase kinase kinase 4 (O95819 2-1239 limits assumed): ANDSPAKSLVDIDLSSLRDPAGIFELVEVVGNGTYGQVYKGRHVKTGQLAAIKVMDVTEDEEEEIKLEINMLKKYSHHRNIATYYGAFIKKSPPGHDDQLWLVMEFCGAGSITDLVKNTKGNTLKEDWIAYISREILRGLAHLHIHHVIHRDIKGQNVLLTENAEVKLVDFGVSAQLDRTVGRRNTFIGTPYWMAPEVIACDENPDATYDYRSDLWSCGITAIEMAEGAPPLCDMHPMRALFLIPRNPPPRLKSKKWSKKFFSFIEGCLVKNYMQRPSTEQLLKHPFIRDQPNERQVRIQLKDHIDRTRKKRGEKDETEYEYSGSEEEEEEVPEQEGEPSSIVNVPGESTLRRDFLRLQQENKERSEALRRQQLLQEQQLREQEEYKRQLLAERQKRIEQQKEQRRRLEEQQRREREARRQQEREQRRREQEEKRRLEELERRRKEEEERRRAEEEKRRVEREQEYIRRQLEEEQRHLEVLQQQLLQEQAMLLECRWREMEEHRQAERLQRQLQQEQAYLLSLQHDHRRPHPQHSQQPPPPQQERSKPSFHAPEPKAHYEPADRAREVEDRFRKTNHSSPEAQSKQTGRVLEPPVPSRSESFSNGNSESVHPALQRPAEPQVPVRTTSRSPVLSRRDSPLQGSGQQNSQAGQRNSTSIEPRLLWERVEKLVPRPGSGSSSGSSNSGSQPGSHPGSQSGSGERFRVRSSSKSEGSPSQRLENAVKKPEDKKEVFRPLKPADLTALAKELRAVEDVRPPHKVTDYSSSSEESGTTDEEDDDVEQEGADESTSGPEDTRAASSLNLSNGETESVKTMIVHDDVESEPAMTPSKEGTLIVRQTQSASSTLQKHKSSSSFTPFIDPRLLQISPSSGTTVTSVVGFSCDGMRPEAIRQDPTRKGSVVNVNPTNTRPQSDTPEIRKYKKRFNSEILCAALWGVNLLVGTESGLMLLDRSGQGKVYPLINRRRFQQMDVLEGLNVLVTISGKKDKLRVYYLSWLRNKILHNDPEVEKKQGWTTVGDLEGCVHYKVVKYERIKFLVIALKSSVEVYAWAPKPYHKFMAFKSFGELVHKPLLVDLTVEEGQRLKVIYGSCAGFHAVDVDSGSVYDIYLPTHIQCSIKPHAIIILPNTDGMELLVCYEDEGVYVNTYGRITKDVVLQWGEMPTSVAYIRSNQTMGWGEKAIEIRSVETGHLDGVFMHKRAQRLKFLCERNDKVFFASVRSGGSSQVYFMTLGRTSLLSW
Sequence of Cyclin-dependent kinase 6 (Homo sapiens) (Q00534 whole entry): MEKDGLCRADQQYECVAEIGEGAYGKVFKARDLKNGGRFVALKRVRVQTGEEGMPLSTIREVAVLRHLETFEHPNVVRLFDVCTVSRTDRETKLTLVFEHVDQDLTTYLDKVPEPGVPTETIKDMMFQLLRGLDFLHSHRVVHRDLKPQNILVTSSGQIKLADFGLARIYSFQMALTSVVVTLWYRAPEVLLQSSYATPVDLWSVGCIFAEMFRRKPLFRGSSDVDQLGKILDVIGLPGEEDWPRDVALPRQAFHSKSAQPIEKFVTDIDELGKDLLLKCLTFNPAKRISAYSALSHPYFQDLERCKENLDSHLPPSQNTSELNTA
Sequence of LIM domain kinase 2 (Homo sapiens) (P53671 whole entry, looked up, the tested form may be a part): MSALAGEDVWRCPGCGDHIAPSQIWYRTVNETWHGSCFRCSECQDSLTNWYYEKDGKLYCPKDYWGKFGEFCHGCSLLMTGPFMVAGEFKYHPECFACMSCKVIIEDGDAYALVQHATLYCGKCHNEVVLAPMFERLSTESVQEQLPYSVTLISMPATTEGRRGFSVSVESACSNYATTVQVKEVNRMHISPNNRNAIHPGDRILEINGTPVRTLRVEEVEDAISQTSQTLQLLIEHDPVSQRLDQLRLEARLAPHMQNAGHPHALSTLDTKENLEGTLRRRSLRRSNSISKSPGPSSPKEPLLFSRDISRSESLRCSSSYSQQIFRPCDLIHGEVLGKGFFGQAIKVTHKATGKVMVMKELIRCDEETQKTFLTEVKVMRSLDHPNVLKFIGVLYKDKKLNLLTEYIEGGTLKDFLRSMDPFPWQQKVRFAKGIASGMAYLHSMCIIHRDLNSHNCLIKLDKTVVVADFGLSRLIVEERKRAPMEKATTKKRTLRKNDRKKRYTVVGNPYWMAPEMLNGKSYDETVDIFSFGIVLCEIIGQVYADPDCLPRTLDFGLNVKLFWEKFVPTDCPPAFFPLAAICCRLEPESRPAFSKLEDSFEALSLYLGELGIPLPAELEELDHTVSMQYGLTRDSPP

Consider `CCN1CCN(Cc2ccc(NC(=O)c3ccc(C)c(/C=C/c4cnc5[nH]ccc5c4OC)c3)cc2C(F)(F)F)CC1`, for which the inhibition in test [1] is 15%; in [2], 5.5%. The residual activity was determined as 100% in [3] and 26% in [4]. For the same compound, the percent of control in [5] came out at 0.75%.
On to `CCN1CCN(Cc2ccc(NC(=O)c3ccc(C)c(Oc4ccnc5[nH]ccc45)c3)cc2C(F)(F)F)CC1`, for which the inhibition in test [6] was 92.7%; in test [7], 11%; in test [9], -2.4%. For the same compound, the inhibition result in test [8] is “inactive”. For the same compound, in [10], the residual activity turned out to be 6.2%.
In the case of `CNc1cc(Oc2cc(C(=O)Nc3cc(N4CCN(C)CC4)cc(C(F)(F)F)c3)ccc2C)ncn1`, the inhibition was 0.5% in [11] and -1.5% in test [12].
